Results on one molecule are retold here after patent publication US12491514B2, “Device, system, and method for trapping tissue samples” (University of Washington, priority 2019, dated 2025).

Molecules are shown by their SMILES.

Test [1] deals with U87 glioma slices. The experiment in a line: Previous experiments with U87 glioma slices on and off a microfluidic device, SG/H live viability staining. The format is cell-based. To be noted: 30 and 100 μM.
In test [2] the test system is U87 glioma cuboids. The experiment in a line: Drug treatment of U87 glioma cuboids on the microfluidic device, SYTOX green/Hoechst cell death staining. The format is cell-based. As to conditions: for cell death response, mean fluorescence ratio SG dead nuclear to Hoechst pan-nuclear: 2 days (day 1 to day 3), U87 cuboids in device. As to the method:
U87 cuboids were cultured in collagen hydrogel. We prepared 80% collagen (Corning rat tail collagen type 1, 354236, 3-4 mg/mL), 10% 10×PBS, and 10% serum-free medium. We then used filtered-sterilized 1M NaOH to neutralize the pH to ˜7.2. For culture in 6 well plates, cuboids were cultured in 1 mL collagen on top of a 0.4 μm filter Transwell PFTE membrane insert (PICMORG50, Millipore) with 1.3 mL culture medium placed below. Cuboids were cultured both with and without an additional layer of pre-gelled 1 mL collagen below with similar histology and staining observed, apart from a relatively flatter shape often seen without the extra collagen layer. The culture medium contained Neurobas al-A medium (Invitrogen) with 25% heat-inactivated horse serum (Sigma), Glutamax (Invitrogen), 2× penicillin/streptomycin (Invitrogen), and growth factors (EGF 20 ng/mL and FGF 20 ng/mL, Preprotech or Invitrogen). Cisplatin (3 mM stock in dH2O, MedChem Express) was diluted in cell culture medium for the drug treatment experiment. Liver cuboids were cultured in 1 mL of collagen hydrogel on a Millipore insert with constant shaking. Culture medium was William's Medium (with L-glutamine, Invitrogen, Scotland) supplemented with 25 mM glucose (Sigma-Aldrich, USA), 30 nM insulin (ITS+premix, Zen-Bio, Inc., USA), 1 nM EGF (Preprotech), 5% Pen Strep (Sigma-Aldrich, USA), 100 nM glucagon (Sigma-Aldrich, USA). Live U87 glioma cuboids were stained for 1 hour, 37° C., with the following dyes (individually or in combination) diluted in culture medium: Cell Tracker Green CMFDA (Invitrogen, 10 μM), Cell Tracker Orange CMRA (Invitrogen, 10 μM), Hoechst (H; Invitrogen, 16 μM), and/or SYTOX green (SG; Invitrogen, 0.01 μM). […] Mean SG fluorescence was normalized to the average value of untreated cuboids. […] As a straightforward simple measure of cell viability, we measured the mean fluorescence ratio in epifluorescence images of SG dead nuclear fluorescence to Hoechst pan-nuclear fluorescence (FIG. 12B). […]

With `N.N.[Cl][Pt][Cl]` [cisplatin], the “response by SG/H live viability staining” value in test [1] is reported as “cell death”. The “cell death response, mean fluorescence ratio SG dead nuclear to Hoechst pan-nuclear” value in test [2] (30 μM) is listed as “statistically significant response”; in test [2] (100 μM), “showing a trend”. In addition, the “mean increase of SG (SYTOX green dead stain) fluorescence normalized to the mean” value in test [2] (100 μM, 2-day maximal drug treatment, used as threshold for death) is reported as 1.4.
